Columns and labels:
Assay type in all cases: binding
PTGER4 = target: T1, PTGER4 (Homo sapiens, UniProt P35408); assay: NanoBRET screen HiBiT-PTGER4 in HEK293
T1 construct: purchased Promega (in-house HiBiT-GPCR construct library, NanoBRET)
Procedure: (§1) Each tracer candidate was screened across the entire library of HiBiT-GPCR constructs using NanoBRET as the detection modality. As depicted in Figure 4A, the specificity of interactions was evaluated through decrease in BRET due to competitive displacement of a bound tracer by excess parental compound. Each tracer was analyzed for binding to each HiBiT-GPCR fusion in the absence and in the presence of competing parental compound. Briefly, HEK293 cells were transfected with HiBiT-GPCR constructs diluted into promoterless DNA to reduce expression and maximize translocation to the cell surface. Each tracer candidate was then screened at concentrations of 1 μM and 0.1 μM across cells expressing these fusions. Cells were treated for 1.5 h with tracer either alone or in the presence of 20 μM competing parental compound (i.e., control). BRET was measured upon addition of purified LgBiT and subsequent complementation with HiBiT genetically fused to a GPCR. The specificity of interactions was assessed through a decrease in BRET signal due to competitive displacement of the bound tracer. To further gauge the robustness of these interactions, the fold response over the control (i.e., BRETtracer/BRETcontrol) was calculated. We chose a 1.5-fold response, which translates to ≥7-fold signal over noise as the minimal threshold required to score an interaction as positive. […]. Below we highlight the screening results obtained for our exemplary fluorescent tracers based on Clozapine, Amitriptyline and AZD1283.
(§2) HiBiT-GPCR DNA constructs were diluted in 10 mM Tris pH 8 to a final concentration of 0.01 μg/μL, arrayed in 96-well plates and stored at −20 °C. For transfection, HEK293 cells were suspended in Opti-MEM (without phenol red) supplemented with 2% fetal bovine serum (Seradigm) and 100 units/mL penicillin–streptomycin (Gibco) at a final concentration of 220,000 cells/mL and dispensed into white 96-well plates at 90 μL/well. Subsequent transfections and screens were carried using an Agilent Bravo Automated Liquid Handling Platform. First, the 96-well HiBiT DNA arrays were diluted 25-fold in Opti-MEM (without serum or phenol red) to a final concentration of 0.0004 μg/μL and 20 μL of the diluted DNAs were transferred into new 96-well plates. Next, promoterless carrier DNA (1 μg/μL) was diluted 25-fold (0.04 μg/μL) and then dispensed into the diluted arrays at 20 μL/well. Following brief mixing, Viafect transfection reagent (Promega) diluted 16-fold into Opti-MEM was dispensed into the plates at 40 μL/well. After mixing by pipetting, plates were incubated for 10 min on the pipetting station deck. The DNA-transfection reagent complexes were then added to plates containing cells. To facilitate the screen, 10 μL of DNA-transfection reagent complexes were added in duplicates to the top 4 and bottom 4 rows, resulting in two identical 48-well arrays per plate. Plates with transfected cells were incubated for 18–20 h at 37 °C/5% CO2. A screen of each tracer across the entire library using two different concentrations requires duplicate plates of transfected cells. Depending on the number of tracers being screened, transfections can be scaled up using the same ratios. The next day, for each tracer, four 20× screening solutions in tracer dilution buffer (Promega) were prepared: two duplicates at final concentration of 20 μM and two duplicates at a final concentration of 2 μM. A competing unmodified compound was added to one of each duplicate at a final concentration of 400 μM. The four resulting solutions were diluted 4-fold in Opti-MEM without serum or phenol red to generate 5× solutions (5 µM and 0.5 µM tracer +/− 100 μM competing compound). To screen the library, a BioTek MultiFlo FX liquid dispenser was used to dispense 22.5 µL of tracer solution to the top 4 rows and 22.5 µL tracer + competing compound solution to the 4 bottom rows. Plates were briefly mixed on an orbital shaker and incubated for 1.5 h at room temperature. […]

P2RY13 = target: T2, P2RY13 (Homo sapiens, UniProt Q9BPV8); assay: NanoBRET screen HiBiT-P2RY13 in HEK293
T2 construct: purchased Promega (in-house HiBiT-GPCR construct library, NanoBRET)
T2 sequence (Q9BPV8 1-354): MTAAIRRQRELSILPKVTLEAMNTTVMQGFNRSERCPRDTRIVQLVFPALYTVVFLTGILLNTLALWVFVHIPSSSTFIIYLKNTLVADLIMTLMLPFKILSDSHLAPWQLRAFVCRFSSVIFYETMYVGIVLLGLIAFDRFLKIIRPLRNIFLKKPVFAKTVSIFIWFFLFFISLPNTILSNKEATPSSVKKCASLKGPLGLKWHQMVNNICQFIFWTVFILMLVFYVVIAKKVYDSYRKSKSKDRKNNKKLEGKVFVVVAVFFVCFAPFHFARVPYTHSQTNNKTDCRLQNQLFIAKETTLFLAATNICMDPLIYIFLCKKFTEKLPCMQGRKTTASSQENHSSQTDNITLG
Procedure: as §1, §2

RXFP4 = target: T3, RXFP4 (Homo sapiens, UniProt Q8TDU9); assay: NanoBRET screen HiBiT-RXFP4 in HEK293
T3 construct: purchased Promega (in-house HiBiT-GPCR construct library, NanoBRET)
Procedure: as §1, §2

BRS3 = target: T4, BRS3 (Homo sapiens, UniProt P32247); assay: NanoBRET screen HiBiT-BRS3 in HEK293
T4 construct: purchased Promega (in-house HiBiT-GPCR construct library, NanoBRET)
T4 sequence (P32247 1-399): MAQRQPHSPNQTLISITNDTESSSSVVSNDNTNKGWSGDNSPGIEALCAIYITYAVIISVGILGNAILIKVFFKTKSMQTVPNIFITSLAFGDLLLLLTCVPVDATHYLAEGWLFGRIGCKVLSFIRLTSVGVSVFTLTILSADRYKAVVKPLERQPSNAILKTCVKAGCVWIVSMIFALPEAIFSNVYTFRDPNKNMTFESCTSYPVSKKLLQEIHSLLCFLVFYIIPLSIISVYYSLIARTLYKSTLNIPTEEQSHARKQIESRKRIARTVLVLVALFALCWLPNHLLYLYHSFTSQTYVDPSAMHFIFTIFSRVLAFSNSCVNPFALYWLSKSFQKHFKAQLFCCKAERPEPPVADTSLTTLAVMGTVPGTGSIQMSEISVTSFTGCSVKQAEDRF
Procedure: as §1, §2

GALR3 = target: T5, GALR3 (Homo sapiens, UniProt O60755); assay: NanoBRET screen HiBiT-GALR3 in HEK293
T5 construct: purchased Promega (in-house HiBiT-GPCR construct library, NanoBRET)
T5 sequence (O60755 1-368): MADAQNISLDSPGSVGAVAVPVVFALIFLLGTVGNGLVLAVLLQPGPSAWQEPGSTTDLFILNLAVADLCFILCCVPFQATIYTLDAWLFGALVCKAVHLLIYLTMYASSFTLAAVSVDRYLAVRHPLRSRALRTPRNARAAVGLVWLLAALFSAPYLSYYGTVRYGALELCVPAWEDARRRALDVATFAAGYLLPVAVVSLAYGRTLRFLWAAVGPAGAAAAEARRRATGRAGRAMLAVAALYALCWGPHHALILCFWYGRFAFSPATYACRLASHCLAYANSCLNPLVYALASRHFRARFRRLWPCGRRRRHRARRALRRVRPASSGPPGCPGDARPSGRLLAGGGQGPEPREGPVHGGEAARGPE
Procedure: as §1, §2

T3 sequence (Q8TDU9 whole entry): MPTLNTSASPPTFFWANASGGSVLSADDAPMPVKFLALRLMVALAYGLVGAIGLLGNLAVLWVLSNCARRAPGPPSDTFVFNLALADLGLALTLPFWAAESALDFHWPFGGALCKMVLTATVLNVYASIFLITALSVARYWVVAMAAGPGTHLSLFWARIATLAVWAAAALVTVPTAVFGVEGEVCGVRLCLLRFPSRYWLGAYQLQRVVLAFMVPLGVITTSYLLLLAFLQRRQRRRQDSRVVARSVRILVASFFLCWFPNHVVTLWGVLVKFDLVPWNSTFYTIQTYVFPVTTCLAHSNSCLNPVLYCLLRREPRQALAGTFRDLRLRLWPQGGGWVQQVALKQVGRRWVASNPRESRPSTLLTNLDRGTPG
T1 sequence (P35408 whole entry): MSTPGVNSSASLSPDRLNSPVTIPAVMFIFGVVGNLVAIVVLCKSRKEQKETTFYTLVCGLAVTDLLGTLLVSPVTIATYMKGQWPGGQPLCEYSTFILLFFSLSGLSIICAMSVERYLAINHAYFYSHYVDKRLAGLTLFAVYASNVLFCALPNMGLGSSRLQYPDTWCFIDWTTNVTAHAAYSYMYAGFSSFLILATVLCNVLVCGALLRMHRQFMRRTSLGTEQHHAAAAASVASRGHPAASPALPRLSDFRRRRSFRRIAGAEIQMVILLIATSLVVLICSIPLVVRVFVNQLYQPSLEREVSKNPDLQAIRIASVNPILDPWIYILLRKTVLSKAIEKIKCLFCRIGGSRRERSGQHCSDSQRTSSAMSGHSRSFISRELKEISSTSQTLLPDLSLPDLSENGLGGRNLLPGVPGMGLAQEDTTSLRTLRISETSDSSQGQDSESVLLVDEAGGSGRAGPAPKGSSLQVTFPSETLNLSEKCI

SMILES | NanoBRET Fold Response (PTGER4; PTGER4, tracer 0.1μM) | NanoBRET Fold Response (PTGER4; PTGER4, tracer 1μM) | NanoBRET Fold Response (P2RY13; P2RY13, tracer 0.1μM) | NanoBRET Fold Response (P2RY13; P2RY13, tracer 1μM) | NanoBRET Fold Response (RXFP4; RXFP4, tracer 0.1μM) | NanoBRET Fold Response (RXFP4; RXFP4, tracer 1μM) | NanoBRET Fold Response (BRS3; BRS3, tracer 0.1μM) | NanoBRET Fold Response (BRS3; BRS3, tracer 1μM) | NanoBRET Fold Response (GALR3; GALR3, tracer 0.1μM) | NanoBRET Fold Response (GALR3; GALR3, tracer 1μM) | further results
CCCn1c(=O)c2[nH]c(-c3ccc(OCC(=O)NCCNC(=O)CCOCCNC(=O)c4ccc(CNC(=O)CCc5ccc6n5[B-](F)(F)[N+]5=C(c7ccc[nH]7)C=CC5=C6)cc4)cc3)nc2n(CCC)c1=O [XAC-3-NB590] | 1.15 | 1.01 | 1.00 | 1.03 | 1.00 | 0.96 | 0.95 | 1.04 | 1.01 | 1.04 | –
O=C(CCc1ccc2n1[B-](F)(F)[N+]1=C(c3ccc[nH]3)C=CC1=C2)NCc1ccc(C(=O)NCCOCCOCCNCC(O)COc2cccc3ccccc23)cc1 (centres unmarked) [Propranolol-3-NB590] | – | – | – | – | – | – | – | – | – | – | NanoBRET Fold Response (PTGER4; PTGER4, 0.1μM): 1.04; NanoBRET Fold Response (PTGER4; PTGER4, 1μM): 1.06; NanoBRET Fold Response (P2RY13; P2RY13, 0.1μM): 0.90; NanoBRET Fold Response (P2RY13; P2RY13, 1μM): 0.97; NanoBRET Fold Response (RXFP4; RXFP4, 0.1μM): 1.02; NanoBRET Fold Response (RXFP4; RXFP4, 1μM): 1.05; NanoBRET Fold Response (BRS3; BRS3, 0.1μM): 1.03; NanoBRET Fold Response (BRS3; BRS3, 1μM): 1.08; NanoBRET Fold Response (GALR3; GALR3, 0.1μM): 1.05; NanoBRET Fold Response (GALR3; GALR3, 1μM): 0.91
O=C(CCc1ccc2n1[B-](F)(F)[N+]1=C(c3ccc[nH]3)C=CC1=C2)NCc1ccc(C(=O)NCCOCCC(=O)N[C@@H]2CC[C@@]3(O)[C@H]4Cc5ccc(O)c6c5[C@@]3(CCN4CC3CC3)[C@H]2O6)cc1 [Naltrexone-3-NB590] | 0.94 | 1.01 | 0.62 | 0.92 | 0.98 | 0.98 | 1.05 | 0.94 | 1.03 | 1.01 | –
N#CN=C(NCCCOc1cccc(CN2CCCCC2)c1)NCCNC(=O)CCOCCOCCOCCOCCNC(=O)CCc1ccc2n1[B-](F)(F)[N+]1=C(c3ccc[nH]3)C=CC1=C2 [Aminopotentidine-2-NB590] | 1.05 | 1.03 | 0.97 | 1.02 | 1.02 | 1.02 | 1.02 | 1.00 | 1.09 | 1.01 | –
COc1ccc2c(n1)c(CCNC(C)=O)cn2CCNC(=O)CCc1ccc2n1[B-](F)(F)[N+]1=C(c3ccc[nH]3)C=CC1=C2 [Azamelatonin-1-NB590] | – | – | – | – | – | – | – | – | – | – | NanoBRET Fold Response (PTGER4; 0.1μM tracer): 1.06; NanoBRET Fold Response (PTGER4; 1μM tracer): 0.96; NanoBRET Fold Response (P2RY13; 0.1μM tracer): 1.08; NanoBRET Fold Response (P2RY13; 1μM tracer): 1.08; NanoBRET Fold Response (RXFP4; 0.1μM tracer): 0.73; NanoBRET Fold Response (RXFP4; 1μM tracer): 1.04; NanoBRET Fold Response (BRS3; 0.1μM tracer): 0.95; NanoBRET Fold Response (BRS3; 1μM tracer): 0.95; NanoBRET Fold Response (GALR3; 0.1μM tracer): 0.81; NanoBRET Fold Response (GALR3; 1μM tracer): 1.05

From article PMC8151276, “An Integrated Approach toward NanoBRET Tracers for Analysis of GPCR Ligand Engagement” (Molecules, 2021)
